Assay results as given in patent publication US6525001B1, “Substituted pyrimidine and pyridine herbicides” (Mid-American Commercialization Corporation, priority 1997, dated 2003).

Assays:
Assay type in all cases: in vivo
[1] = system: smallflower flatsedge (Cyperus difformis); assay: Test B flood test
Procedure, shortened: (§1)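 Each value is a visual injury score relative to controls, with 10 meaning complete control and 0 no effect. Evaluation took place twelve to sixteen days after the 2-leaf-stage plants were treated and kept in the greenhouse.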

rice (Oryza sativa) = assay: Test B flood test
Procedure, shortened: as §1

[2] = system: duck salad (Heteranthera limosa); assay: Test B flood test
Procedure, shortened: as §1

[3] = system: bamyardgrass (Echinochloa crus-galli); assay: Test B flood test
Procedure, shortened: as §1

rape (Brassica napus) = assay: Test B pre-/postemergence; parameters: key: 0 is no effect; 10 is complete control
Excerpt: (§2) Seeds of bedstraw (Galium aparine), blackgrass (Alopecurus myosuroides), broadleaf signalgrass (Brachiaria decumbens), cocklebur (Xanthium strumarium), corn (Zea mays), crabgrass (Digitaria sanguinalis), giant foxtail (Setaria faberii), lambsquarters (Chenopodium album), momingglory (Ipomoea hederacea), pigweed (Amaranthus retroflexus), rape (Brassica napus), soybean (Glycine max), sugar beet (Beta vulgaris), velvetleaf (Abutilon theophrasti), wheat (Triticum aestivum), wild oat (Avena fatua) and purple nutsedge (Cyperus rotundus) tubers were planted and treated preemergence with test chemicals formulated in a non-phytotoxic solvent mixture which included a surfactant.
(§3) At the same time, these crop and weed species were also treated with postemergence applications of test chemicals formulated in the same manner. Plants ranged in height from 2 to 18 cm (1- to 4-leaf stage) for postemergence treatments. Plant species in the flood test consisted of rice (Oryza sativa), smallflower flatsedge (Cyperus difformis), duck salad (Heteranthera limosa) and bamyardgrass (Echinochloa crus-galli) grown to the 2-leaf stage for testing. Treated plants and controls were maintained in a greenhouse for twelve to sixteen days, after which all species were compared to controls and visually evaluated. Plant response ratings, summarized in Table B, are based on a scale of 0 to 10 where 0 is no effect and 10 is complete control. A dash (−) response means no test result.

corn (Zea mays) = assay: Test B pre-/postemergence; parameters: key: 0 is no effect; 10 is complete control; conditions: for Corn plant response rating: Preemergence
Excerpt: as §2, §3

[4] = system: purple nutsedge (Cyperus rotundus); assay: Test B pre-/postemergence; parameters: key: 0 is no effect; 10 is complete control
Excerpt: as §2, §3

[5] = system: crabgrass (Digitaria sanguinalis); assay: Test B pre-/postemergence; parameters: key: 0 is no effect; 10 is complete control; conditions: for Crabgrass plant response rating: Preemergence
Excerpt: as §2, §3

[6] = system: broadleaf signalgrass (Brachiaria decumbens); assay: Test B pre-/postemergence; parameters: key: 0 is no effect; 10 is complete control; conditions: for B. signalgrass plant response rating: Preemergence
Excerpt: as §2, §3

[7] = system: cocklebur (Xanthium strumarium); assay: Test B pre-/postemergence; parameters: key: 0 is no effect; 10 is complete control; conditions: for Cocklebur plant response rating: Preemergence
Excerpt: as §2, §3

wild oat (Avena fatua) = assay: Test B pre-/postemergence; parameters: key: 0 is no effect; 10 is complete control
Excerpt: as §2, §3

[8] = system: giant foxtail (Setaria faberii); assay: Test B pre-/postemergence; parameters: key: 0 is no effect; 10 is complete control
Excerpt: as §2, §3

[9] = system: pigweed (Amaranthus retroflexus); assay: Test B pre-/postemergence; parameters: key: 0 is no effect; 10 is complete control
Excerpt: as §2, §3

[10] = system: sugar beet (Beta vulgaris); assay: Test B pre-/postemergence; parameters: key: 0 is no effect; 10 is complete control
Excerpt: as §2, §3

soybean (Glycine max) = assay: Test B pre-/postemergence; parameters: key: 0 is no effect; 10 is complete control
Excerpt: as §2, §3

[11] = system: bedstraw (Galium aparine); assay: Test B pre-/postemergence; parameters: key: 0 is no effect; 10 is complete control; conditions: for Bedstraw plant response rating: Preemergence
Excerpt: as §2, §3

[12] = system: wheat (Triticum aestivum); assay: Test B pre-/postemergence; parameters: key: 0 is no effect; 10 is complete control
Excerpt: as §2, §3

[13] = system: velvetleaf (Abutilon theophrasti); assay: Test B pre-/postemergence; parameters: key: 0 is no effect; 10 is complete control
Excerpt: as §2, §3

[14] = system: blackgrass (Alopecurus myosuroides); assay: Test B pre-/postemergence; parameters: key: 0 is no effect; 10 is complete control; conditions: for Blackgrass plant response rating: Preemergence
Excerpt: as §2, §3

[15] = system: momingglory (Ipomoea hederacea); assay: Test B pre-/postemergence; parameters: key: 0 is no effect; 10 is complete control
Excerpt: as §2, §3

[16] = Rate 62 g/ha, Postemergence (flood test)
[17] = Rate 125 g/ha, Postemergence section (flood test species)
[18] = Rate 250 g/ha, Postemergence (flood test species)
[19] = Rate 125 g/ha, Postemergence, flood test
[20] = Rate 250 g/ha, Postemergence (so in the source)

## Cc1cnc(-c2ccc(Cl)cc2F)nc1Cc1cccc(C(F)(F)F)c1 [Compound 29]
[1]; [16]
  Plant response rating, S. Flatsedge: 1
[1]; [17]
  S. Flatsedge plant response rating: 6
[1]; [18]
  Plant response rating, S. Flatsedge: 8
Rice (Oryza sativa); [16]
  Plant response rating, Rice: 1
Rice (Oryza sativa); [17]
  Rice plant response rating: 2
Rice (Oryza sativa); [18]
  Plant response rating, Rice: 3
[2]; [16]
  Plant response rating, Ducksalad: 1
[2]; [19]
  Plant response rating, Ducksalad: 3
[2]; [18]
  Plant response rating, Ducksalad: 4
[3]; [16]
  Plant response rating, Barnyardgrass: 2
[3]; [19]
  Plant response rating, Barnyardgrass: 3
[3]; [18]
  Plant response rating, Barnyardgrass: 4
Rape (Brassica napus); Rate 62 g/ha, Postemergence
  Plant response rating, Rape: 8
Rape (Brassica napus); Rate 62 g/ha, Preemergence
  Rape plant response rating: 1
Rape (Brassica napus); Rate 125 g/ha, Postemergence
  Rape plant response rating: 9
Rape (Brassica napus); Rate 125 g/ha, Preemergence
  Rape plant response rating: 1
Rape (Brassica napus); Rate 250 g/ha, Postemergence
  Plant response rating, Rape: 9
Rape (Brassica napus); [20]
  Plant response rating, Rape: 1
Corn (Zea mays); Rate 62 g/ha, Postemergence
  Plant response rating, Corn: 2
Corn (Zea mays); Rate 62 g/ha
  Corn plant response rating: 0
Corn (Zea mays); Rate 125 g/ha, Postemergence
  Plant response rating, Corn: 2
Corn (Zea mays); Rate 125 g/ha
  Corn plant response rating: 0
Corn (Zea mays); Rate 250 g/ha, Postemergence
  Plant response rating, Corn: 3
Corn (Zea mays); [20]
  Plant response rating, Corn: 0
[4]; Rate 62 g/ha, Postemergence
  Plant response rating, Nutsedge: 0
[4]; Rate 62 g/ha, Preemergence
  Nutsedge plant response rating: 0
[4]; Rate 125 g/ha, Postemergence
  Nutsedge plant response rating: 0
[4]; Rate 125 g/ha, Preemergence
  Nutsedge plant response rating: 0
[5]; Rate 62 g/ha, Postemergence
  Plant response rating, Crabgrass: 4
[5]; Rate 62 g/ha
  Crabgrass plant response rating: 2
[5]; Rate 125 g/ha, Postemergence
  Plant response rating, Crabgrass: 6
[5]; Rate 125 g/ha
  Crabgrass plant response rating: 4
[5]; Rate 250 g/ha, Postemergence
  Plant response rating, Crabgrass: 9
[5]; [20]
  Plant response rating, Crabgrass: 7
[6]; Rate 62 g/ha, Postemergence
  Plant response rating, B. signalgrass: 3
[6]; Rate 62 g/ha
  B. signalgrass plant response rating: 1
[6]; Rate 125 g/ha, Postemergence
  Plant response rating, B. signalgrass: 3
[6]; Rate 125 g/ha
  B. signalgrass plant response rating: 3
[6]; Rate 250 g/ha, Postemergence
  Plant response rating, B. signalgrass: 5
[6]; Rate 250 g/ha, Postemergence as printed in head r139 (second section for compounds 26-50)
  Plant response rating, B. signalgrass: 4
[7]; Rate 62 g/ha, Postemergence
  Plant response rating, Cocklebur: 6
[7]; Rate 62 g/ha
  Cocklebur plant response rating: 0
[7]; Rate 125 g/ha, Postemergence
  Plant response rating, Cocklebur: 6
[7]; Rate 125 g/ha
  Cocklebur plant response rating: 0
[7]; Rate 250 g/ha, Postemergence
  Plant response rating, Cocklebur: 8
[7]; [20]
  Plant response rating, Cocklebur: 0
Wild oat (Avena fatua); Rate 62 g/ha, Postemergence
  Wild oats plant response rating: 1
Wild oat (Avena fatua); Rate 62 g/ha, Preemergence
  Wild oats plant response rating: 0
Wild oat (Avena fatua); Rate 125 g/ha, Postemergence
  Wild oats plant response rating: 2
Wild oat (Avena fatua); Rate 125 g/ha, Preemergence
  Plant response rating, Wild oats: 0
Wild oat (Avena fatua); Rate 250 g/ha, Postemergence
  Plant response rating, Wild oats: 4
Wild oat (Avena fatua); [20]
  Plant response rating, Wild oats: 1
[8]; Rate 62 g/ha, Postemergence
  Plant response rating, Giant foxtail: 3
[8]; Rate 62 g/ha, Preemergence
  Giant foxtail plant response rating: 1
[8]; Rate 125 g/ha, Postemergence
  Giant foxtail plant response rating: 4
[8]; Rate 125 g/ha, Preemergence
  Giant foxtail plant response rating: 4
[8]; Rate 250 g/ha, Postemergence
  Plant response rating, Giant foxtail: 4
[8]; [20]
  Plant response rating, Giant foxtail: 9
[9]; Rate 62 g/ha, Postemergence
  Plant response rating, Redroot pigweed: 8
[9]; Rate 62 g/ha, Preemergence
  Redroot pigweed plant response rating: 0
[9]; Rate 125 g/ha, Postemergence
  Redroot pigweed plant response rating: 10
[9]; Rate 125 g/ha, Preemergence
  Redroot pigweed plant response rating: 3
[9]; Rate 250 g/ha, Postemergence
  Plant response rating, Redroot pigweed: 10
[9]; [20]
  Plant response rating, Redroot pigweed: 3
[10]; Rate 62 g/ha, Postemergence
  Plant response rating, Sugarbeets: 9
[10]; Rate 62 g/ha, Preemergence
  Sugarbeets plant response rating: 0
[10]; Rate 125 g/ha, Postemergence
  Sugarbeets plant response rating: 9
[10]; Rate 125 g/ha, Preemergence
  Plant response rating, Sugarbeets: 3
[10]; Rate 250 g/ha, Postemergence
  Plant response rating, Sugarbeets: 10
[10]; [20]
  Plant response rating, Sugarbeets: 4
Soybean (Glycine max); Rate 62 g/ha, Postemergence
  Plant response rating, Soybean: 3
Soybean (Glycine max); Rate 62 g/ha, Preemergence
  Soybean plant response rating: 0
Soybean (Glycine max); Rate 125 g/ha, Postemergence
  Soybean plant response rating: 4
Soybean (Glycine max); Rate 125 g/ha, Preemergence
  Plant response rating, Soybean: 0
Soybean (Glycine max); Rate 250 g/ha, Postemergence
  Plant response rating, Soybean: 7
Soybean (Glycine max); [20]
  Plant response rating, Soybean: 0
[11]; Rate 62 g/ha, Postemergence
  Plant response rating, Bedstraw: 2
[11]; Rate 62 g/ha
  Bedstraw plant response rating: 0
[11]; Rate 125 g/ha, Postemergence
  Plant response rating, Bedstraw: 9
[11]; Rate 125 g/ha
  Bedstraw plant response rating: 1
[11]; Rate 250 g/ha, Postemergence
  Plant response rating, Bedstraw: 9
[11]; [20]
  Plant response rating, Bedstraw: 3
[12]; Rate 62 g/ha, Postemergence
  Wheat plant response rating: 2
[12]; Rate 62 g/ha, Preemergence
  Wheat plant response rating: 0
[12]; Rate 125 g/ha, Postemergence
  Wheat plant response rating: 3
[12]; Rate 125 g/ha, Preemergence
  Plant response rating, Wheat: 0
[12]; Rate 250 g/ha, Postemergence
  Plant response rating, Wheat: 4
[12]; [20]
  Plant response rating, Wheat: 0
[13]; Rate 62 g/ha, Postemergence
  Plant response rating, Velvetleaf: 3
[13]; Rate 62 g/ha, Preemergence
  Velvetleaf plant response rating: 0
[13]; Rate 125 g/ha, Postemergence
  Velvetleaf plant response rating: 3
[13]; Rate 125 g/ha, Preemergence
  Plant response rating, Velvetleaf: 0
[13]; Rate 250 g/ha, Postemergence
  Plant response rating, Velvetleaf: 4
[13]; [20]
  Plant response rating, Velvetleaf: 0
[14]; Rate 62 g/ha, Postemergence
  Plant response rating, Blackgrass: 2
[14]; Rate 62 g/ha
  Blackgrass plant response rating: 1
[14]; Rate 125 g/ha, Postemergence
  Plant response rating, Blackgrass: 3
[14]; Rate 125 g/ha
  Blackgrass plant response rating: 1
[14]; Rate 250 g/ha, Postemergence
  Plant response rating, Blackgrass: 5
[14]; [20]
  Plant response rating, Blackgrass: 3
[15]; Rate 62 g/ha, Postemergence
  Plant response rating, Morningglory: 8
[15]; Rate 62 g/ha, Preemergence
  Morningglory plant response rating: 0
[15]; Rate 125 g/ha, Postemergence
  Morningglory plant response rating: 10
[15]; Rate 125 g/ha, Preemergence
  Morningglory plant response rating: 2
[15]; Rate 250 g/ha, Postemergence
  Plant response rating, Morningglory: 10
[15]; [20]
  Plant response rating, Morningglory: 3
